According to patent EP2150534B1, “ISOQUINOLINONE DERIVATIVES AS NK3 ANTAGONISTS” (H. Lundbeck A/S, priority 2007, dated 2008):

Columns and labels:
human NK3 receptor [1] = target: T1, human NK3 receptor (Homo sapiens, UniProt P29371); assay: NK3 receptor binding assay (SPA-based competition binding with 125I-NKB, membranes of BHK cells); settings: table of Example 10; affinity obtained as described in Example 9; read-out: Affinity Ki
T1 construct: expressed in transfected cells; membranes prepared from them
T1 sequence (P29371 1-465): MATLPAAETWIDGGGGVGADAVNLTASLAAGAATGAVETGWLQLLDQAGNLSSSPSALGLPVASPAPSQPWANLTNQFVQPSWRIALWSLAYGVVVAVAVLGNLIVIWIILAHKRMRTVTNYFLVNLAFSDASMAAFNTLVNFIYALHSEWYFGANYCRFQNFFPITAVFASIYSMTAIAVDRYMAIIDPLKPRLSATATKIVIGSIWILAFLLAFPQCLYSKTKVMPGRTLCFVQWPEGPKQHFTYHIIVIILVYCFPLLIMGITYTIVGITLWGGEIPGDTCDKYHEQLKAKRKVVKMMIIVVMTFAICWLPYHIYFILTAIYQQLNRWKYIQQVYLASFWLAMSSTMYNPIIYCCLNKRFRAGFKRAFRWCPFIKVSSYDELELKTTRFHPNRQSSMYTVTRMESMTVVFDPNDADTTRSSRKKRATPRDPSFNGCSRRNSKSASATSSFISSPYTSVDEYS
Method: Membranepreparation: BHK cells stably expressing the human NK3 receptor were seeded in harvesting plates in Dulbeccos MEM containing GlutaMax (862 mg/l), 1 mM sodium pyruvate, 10% fetal calf serum, 1% Pen/Strep, I mg/ml G418 and were grown at 34 °C in a humidified atmosphere containing 10% CO2. To increase receptor expression, 10 µM trichotatin A was added to the media 24 hours before harvest of the cells at a confluency of app 90%. Prior to the harvesting, the cells were washed twice with PBS without Mg^2+ og Ca^2+ and subsequently scrapped of in 10 ml PBS pr harvesting plate. The cells suspension were centrifuged at 1500xG in three minutes before resuspension in 15 mM Tris-HCl pH 7,5 buffer containing 2 mM MgCl2; 0,3 mM EDTA and 1 mM EGTA (buffer A). The cell suspention was homogenised and subsequently centrifuged at 40000xG in 30 minutes. The membrane-pellet was resuspended in buffer A containing 250 mM sucrose, alliquoted and stored at - 80°C.
Affinity assay description: The assay was performed as a SPA-based competition-binding assay in a 50 mM Tris pH 7.4 assay buffer containing 120 mM NaCl, 3 mM MnCl2, 40 µg/ml bacitracin, 2 µg/ml Chymostatin, 1 µg/ml Phosphoramidon and 4 µg/ml Leupeptin. App 0.02 nM ^125I-NKB was mixed with test compounds before addition of 4 µg of the homogenised NK3 membrane preparation and 0,025 mg SPA beads in a total volume of 60 µl. The assay plate was subsequently under agitation incubated for 90 min at RT. The plate was centrifugated 10 minutes at 500xG and counted in a topcounter 5 minuttes pr well.
The non-specific binding constituted app 5 % of the total binding.
Data points were expressed in percent of the specific binding of ^125I-NKB and the IC50 values (concentration causing 50 percent inhibition of ^125I-NKB specific binding) were determined by non-linear regression analysis using a sigmoidal variable slope curve fitting. The dissociation constant (Ki) were calculated from the Cheng Prusoff equation (Ki = IG50/(1+(L/KD))), where the concentration of free radioligand L is approximated to the concentration of added ^125I-NKB in the assay (app 0,02 nM).
The KD of ^125I-NKB was determined to be 0,7 nM from three independent saturation assays each performed with duplicate determinations. Bmax was app 2 pmol/mg.

human NK3 receptor [2] = target: T1, human NK3 receptor; assay: NK3 receptor efficacy and potency assay (FLIPR Calcium 4 assay, BHK cells; agonist and antagonist mode versus NKB); format: cell-based; settings: read-out: Potency cIC50
Method: BHK cells stably expressing the human NK3 receptor were seeded in 100 µl media in black walled clear-base 96-wells plates (Costar) aiming at a confluency of 95-100% at the day of assay. The assay was performed according to the FLIPR Calcium 4 Assay kit (Molecular Devices). At the day of the assay, the media was removed and the cells were washed once with the HBSS buffer (Hanks BSS buffer, pH 7,4 containing 20 mM Hepes) before 100 µl of a solution of the calcium assay reagent dissolved in the HBSS buffer containing 2,5 mM probinicid was added to the cells. The plates were incubated for 60 min at 34°C, 10% CO2 before use in the FLIPR for examination of fluorescence.
For efficacy and potency evaluation of compounds, these were diluted in HBSS buffer prior to test. For test of agonist activity, 25 µl of the diluted compound solution was added and the plate was analyzed for 5 minutes in the FLIPR. […] The plates were subsequently analyzed for 5 minutes before the assay was terminated. The maximal increase in fluorescence over background following each ligand addition was determined.

SMILES | Ki (human NK3 receptor [1]) | IC50 (human NK3 receptor [2])
CC[C@H](NC(=O)c1c(CN2CCC(O)(c3cccc(OC)c3)CC2)n(-c2cccc(F)c2)c(=O)c2ccccc12)c1ccccc1 [Example 2iy, 2-(3-Fluoro-phenyl)-3-[4-hydroxy-4-(3-methoxy-phenyl)-piperidin-1-ylmethyl]-1-oxo-1,2-dihydro-isoquinoline-4-carboxylic acid ((S)-1-phenyl-propyl)-amide] | 17 nM | 92 nM
CC[C@H](NC(=O)c1c(CN2CCN(C(C)(C)C)CC2)n(-c2ccccc2)c(=O)c2c(Cl)cccc12)c1ccccc1 [Example 2ko, 3-(4-tert-Butyl-piperazin-1-ylmethyl)-8-chloro-1-oxo-2-phenyl-1,2-dihydro-isoquinoline-4-carboxylic acid ((S)-1-phenyl-propyl)-amide] | 11 nM | 5.6 nM
CC[C@H](NC(=O)c1c(CN2CCC(CCN3CCOCC3)CC2)n(-c2ccccc2)c(=O)c2ccccc12)c1ccccc1 [Example 2cw, 3-[4-(2-Morpholin-4-yl-ethyl)-piperidin-1-ylmethyl]-1-oxo-2-phenyl-1,2-dihydro-isoquinoline-4-carboxylic acid ((S)-1-phenyl-propyl)-amide] | 8.4 nM | 45 nM
CC[C@H](NC(=O)c1c(CNCC2CC2)n(-c2ccccc2)c(=O)c2ccccc12)c1ccccc1 [Example 2e, 3-[(Cyclopropylmethyl-amino)-methyl]-1-oxo-2-phenyl-1,2-dihydro-isoquinoline-4-carboxylic acid ((S)-1-phenyl-propyl)-amide] | 330 nM | 470 nM
CC[C@H](NC(=O)c1c(CNC(C)(C)C)n(-c2ccccc2)c(=O)c2ccccc12)c1ccccc1 [Example 2ec, 3-(tert-Butylamino-methyl)-1-oxo-2-phenyl-1,2-dihydro-isoquinoline-4-carboxylic acid ((S)-1-phenyl-propyl)-amide] | 210 nM | 520 nM
CC(=O)N(C)C1(c2ccccc2)CCN(Cc2c(C(=O)NC(c3cccc(F)c3)C3CC3)c3ccccc3c(=O)n2-c2ccccc2)CC1 (centres unmarked) [Example 2ia, 3-[4-(Acetyl-methyl-amino)-4-phenyl-piperidin-1-ylmethyl]-1-oxo-2-phenyl-1,2-dihydro-isoquinoline-4-carboxylic acid [cyclopropyl-(3-fluoro-phenyl)-methyl]-amide] | 12 nM | 100 nM
O=C(NC(c1cccc(F)c1)C1CC1)c1c(CN2CCN(CCN3CCCC3)CC2)n(-c2ccccc2)c(=O)c2ccccc12 (centres unmarked) [Example 2hv, 1-Oxo-2-phenyl-3-[4-(2-pyrrolidin-1-yl-ethyl)-piperazin-1-ylmethyl]-1,2-dihydro-isoquinolinc-4-carboxylic acid [cyclopropyl-(3-fluoro-phenyl)-methyl]-amide] | 14 nM | 35 nM
Cc1c(C(=O)N[C@H](c2ccccc2)C2CCC2)c2cccc(Cl)c2c(=O)n1-c1ccccc1 [Example 1bn, 8-Chloro-3-methyl-1-oxo-2-phenyl-1,2-dihydro-isoquinoline-4-carboxylic acid ((S)cyclobutyl-phenyl-methyl)-amide] | 23 nM | 23 nM
CC[C@H](NC(=O)c1c(CN2CCCC2=O)n(-c2ccccc2)c(=O)c2c(Cl)cccc12)c1ccccc1 [Example 3b] | 32 nM | 47 nM
CC[C@H](NC(=O)c1c(CN2CCCCCC2)n(-c2ccccc2)c(=O)c2ccccc12)c1ccccc1 [Example 2ah, 3-Azepan-1-ylmethyl-1-oxo-2-phenyl-1,2-dihydro-isoquinoline-4-carboxylic acid ((S)-1-phenyl-propyl)-amide] | 290 nM | 360 nM
